Laboratory results reported in ChEMBL document CHEMBL3885881, “DrugMatrix”.

Species on record: Rattus norvegicus
Assay: DrugMatrix - Regimen: Daily Repeat
Assay type: toxicity, organism-based, Sprague-Dawley
Parameters: regimen Daily Repeat, gender Male, age 6-8 weeks
Conditions: in vivo, po, route oral GAVAGE, vehicle .5 % CMC; for ABSOLUTE BASOPHIL / ABSOLUTE EOSINOPHIL / ABSOLUTE LYMPHOCYTE / ABSOLUTE MONOCYTE / ABSOLUTE SEGMENTED NEUTROPHIL / BASOPHIL / EOSINOPHIL / ERYTHROCYTE COUNT / HEMATOCRIT / HEMOGLOBIN / LEUKOCYTE COUNT / LYMPHOCYTE / MEAN CORPUSCULAR HEMOGLOBIN / MEAN CORPUSCULAR HEMOGLOBIN CONCENTRATION / MEAN CORPUSCULAR VOLUME / MONOCYTE / NEUTROPHIL / NUCLEATED RED BLOOD CELLS / PLATELET COUNT: tissue Blood; for ALANINE AMINOTRANSFERASE / ALBUMIN / ALKALINE PHOSPHATASE / ASPARTATE AMINOTRANSFERASE / BLOOD UREA NITROGEN / CARBON DIOXIDE / CHLORIDE / CHOLESTEROL / CREATINE PHOSPHOKINASE / CREATININE / GLUCOSE / LACTATE DEHYDROGENASE / LIPASE / PHOSPHORUS / POTASSIUM / SODIUM / TOTAL BILIRUBIN / TOTAL PROTEIN / URIC ACID: tissue Plasma
[1] = 0 mg/kg, 72 h, dose level Control, time 3 day
[2] = 0 mg/kg, 120 h, dose level Control, time 5 day
[3] = 30 mg/kg, 72 h, dose level Low, time 3 day

## CCOc1cc(N)c(Cl)cc1C(=O)NCC1CN(Cc2ccc(F)cc2)CCO1 (centres undefined) [MOSAPRIDE]
[1]
  ABSOLUTE BASOPHIL: 0 CELLS/uL
  ABSOLUTE EOSINOPHIL: 171.33 CELLS/uL
  ABSOLUTE LYMPHOCYTE: 13776.5 CELLS/uL
  ABSOLUTE MONOCYTE: 180.83 CELLS/uL
  ABSOLUTE SEGMENTED NEUTROPHIL: 1121.33 CELLS/uL
  BASOPHIL: 0%
  EOSINOPHIL: 1%
  ERYTHROCYTE COUNT: 5.56 x10E6/uL
  HEMATOCRIT: 34.75%
  HEMOGLOBIN: 13.68 G/DL
  LEUKOCYTE COUNT: 15.25 x10E3/uL
  LYMPHOCYTE: 90.17%
  MEAN CORPUSCULAR HEMOGLOBIN: 24.6 pg
  MEAN CORPUSCULAR HEMOGLOBIN CONCENTRATION: 39.4 G/DL
  MEAN CORPUSCULAR VOLUME: 62.48 fL
  MONOCYTE: 1.17%
  NEUTROPHIL: 7.67%
  NUCLEATED RED BLOOD CELLS: 0 /100WBC
  PLATELET COUNT: 1342 x10E3/uL
  ALANINE AMINOTRANSFERASE: 49.67 u/L
  ALBUMIN: 4.15 G/DL
  ALKALINE PHOSPHATASE: 346.83 u/L
  ASPARTATE AMINOTRANSFERASE: 108.17 u/L
  BLOOD UREA NITROGEN: 17.33 mg/dL
  CARBON DIOXIDE: 25 mmol/L
  CHLORIDE: 100.83 MEQ/L
  CHOLESTEROL: 66.83 mg/dL
  CREATINE PHOSPHOKINASE: 788 u/L
  CREATININE: 0.18 mg/dL
  GLUCOSE: 151.67 mg/dL
  LACTATE DEHYDROGENASE: 982.5 u/L
  LIPASE: 10.33 u/L
  PHOSPHORUS: 11.23 mg/dL
  POTASSIUM: 6.37 MEQ/L
  SODIUM: 141.02 MEQ/L
  TOTAL BILIRUBIN: 0.18 mg/dL
  TOTAL PROTEIN: 5.9 G/DL
  URIC ACID: 1.8 mg/dL
[2]
  ABSOLUTE BASOPHIL: 0 CELLS/uL
  ABSOLUTE EOSINOPHIL: 69 CELLS/uL
  ABSOLUTE LYMPHOCYTE: 13632.83 CELLS/uL
  ABSOLUTE MONOCYTE: 139.83 CELLS/uL
  ABSOLUTE SEGMENTED NEUTROPHIL: 1225 CELLS/uL
  BASOPHIL: 0%
  EOSINOPHIL: 0.33%
  ERYTHROCYTE COUNT: 5.52 x10E6/uL
  HEMATOCRIT: 33.98%
  HEMOGLOBIN: 13.22 G/DL
  LEUKOCYTE COUNT: 15.07 x10E3/uL
  LYMPHOCYTE: 90.83%
  MEAN CORPUSCULAR HEMOGLOBIN: 23.95 pg
  MEAN CORPUSCULAR HEMOGLOBIN CONCENTRATION: 38.9 G/DL
  MEAN CORPUSCULAR VOLUME: 61.53 fL
  MONOCYTE: 0.83%
  NEUTROPHIL: 8%
  NUCLEATED RED BLOOD CELLS: 0 /100WBC
  PLATELET COUNT: 1196 x10E3/uL
  ALANINE AMINOTRANSFERASE: 49.17 u/L
  ALBUMIN: 4.2 G/DL
  ALKALINE PHOSPHATASE: 352.33 u/L
  ASPARTATE AMINOTRANSFERASE: 89.67 u/L
  BLOOD UREA NITROGEN: 18 mg/dL
  CARBON DIOXIDE: 27.67 mmol/L
  CHLORIDE: 101 MEQ/L
  CHOLESTEROL: 72.83 mg/dL
  CREATINE PHOSPHOKINASE: 417.5 u/L
  CREATININE: 0.18 mg/dL
  GLUCOSE: 150.5 mg/dL
  LACTATE DEHYDROGENASE: 517.33 u/L
  LIPASE: 9 u/L
  PHOSPHORUS: 11.87 mg/dL
  POTASSIUM: 6.57 MEQ/L
  SODIUM: 143.62 MEQ/L
  TOTAL BILIRUBIN: 0.2 mg/dL
  TOTAL PROTEIN: 6.08 G/DL
  URIC ACID: 1.45 mg/dL
[3]
  ABSOLUTE BASOPHIL: 0 CELLS/uL
  ABSOLUTE EOSINOPHIL: 0 CELLS/uL
  ABSOLUTE LYMPHOCYTE: 13493 CELLS/uL
  ABSOLUTE MONOCYTE: 253.67 CELLS/uL
  ABSOLUTE SEGMENTED NEUTROPHIL: 1253.33 CELLS/uL
  BASOPHIL: 0%
  EOSINOPHIL: 0%
  ERYTHROCYTE COUNT: 5.62 x10E6/uL
  HEMATOCRIT: 34.97%
  HEMOGLOBIN: 13.6 G/DL
  LEUKOCYTE COUNT: 15 x10E3/uL
  LYMPHOCYTE: 90%
  MEAN CORPUSCULAR HEMOGLOBIN: 24.23 pg
  MEAN CORPUSCULAR HEMOGLOBIN CONCENTRATION: 38.9 G/DL
  MEAN CORPUSCULAR VOLUME: 62.3 fL
  MONOCYTE: 1.67%
  NEUTROPHIL: 8.33%
  NUCLEATED RED BLOOD CELLS: 0 /100WBC
  PLATELET COUNT: 1159.67 x10E3/uL
  ALANINE AMINOTRANSFERASE: 57.33 u/L
  ALBUMIN: 4.3 G/DL
  ALKALINE PHOSPHATASE: 338 u/L
  ASPARTATE AMINOTRANSFERASE: 95 u/L
  BLOOD UREA NITROGEN: 14.67 mg/dL
  CARBON DIOXIDE: 26.33 mmol/L
  CHLORIDE: 102 MEQ/L
  CHOLESTEROL: 74 mg/dL
  CREATINE PHOSPHOKINASE: 533.33 u/L
  CREATININE: 0.2 mg/dL
  GLUCOSE: 136.67 mg/dL
  LACTATE DEHYDROGENASE: 408 u/L
  LIPASE: 10.67 u/L
  PHOSPHORUS: 12.77 mg/dL
  POTASSIUM: 6.39 MEQ/L
  SODIUM: 143.7 MEQ/L
  TOTAL BILIRUBIN: 0.2 mg/dL
  TOTAL PROTEIN: 6 G/DL
  URIC ACID: 1.47 mg/dL
